Values quoted from earlier work, collected in patent publication US20110081416A1, “ORDERED MESOPOROUS SILICA MATERIAL” (FORMAC Pharmaceuticals N.V., priority 2008, published 2011).
Blank lines part the entries; values can stand above or below the compound they belong to.

Experiments:
[1] = not given; remark: listed apart in the source
[2] = Table 3, acids with a pKa of less than 2

Structure (SMILES): NC(=O)N1c2ccccc2C=Cc2ccccc21 [Carbamazepine, 5H-dibenz[b,f]azepine-5-carboxamide]
solubility in alcohol and acetone (in words) (alcohol and acetone): soluble | solubility in water (in words): practically insoluble

Structure (SMILES): CC(=O)O[C@H]1C(=O)[C@@]2(C)[C@H]([C@H](OC(=O)c3ccccc3)[C@]3(O)C[C@H](OC(=O)[C@H](O)[C@@H](NC(=O)c4ccccc4)c4ccccc4)C(C)=C1C3(C)C)[C@]1(OC(C)=O)CO[C@@H]1C[C@@H]2O [Paclitaxel]
solubility in water (in words): insoluble

Structure (SMILES): CCC(C)n1ncn(-c2ccc(N3CCN(c4ccc(OCC5COC(Cn6cncn6)(c6ccc(Cl)cc6Cl)O5)cc4)CC3)cc2)c1=O (stereo not shown) [Itraconazole]
solubility in water (in words): poorly soluble

Structure (SMILES): O=S(O)O [sulfurous acid]
pKa [2]: 1.81

Continued, values first:

solubility in ethanol (in words) (ethanol): freely soluble | solubility in methanol and chloroform (in words) (methanol and chloroform): very soluble | solubility in water (in words): practically insoluble | absolute bioavailability ([1]; 5 mg dose taken twice a day): approximately 17%
Structure (SMILES): C=CC[C@@H]1/C=C(\C)C[C@H](C)C[C@H](OC)[C@H]2O[C@@](O)(C(=O)C(=O)N3CCCC[C@H]3C(=O)O[C@H](/C(C)=C/[C@@H]3CC[C@@H](O)[C@H](OC)C3)[C@H](C)[C@@H](O)CC1=O)[C@H](C)C[C@@H]2OC [Tacrolimus]

increase in plasma concentration on doubling the dose ([1]; doubling the dose): 30-40% | half-life ([1]; in vivo): 4 to 5 h | time of peak (plasma) concentrations ([1]; oral): ≤ 2 h
Structure (SMILES): C#C[C@]1(O)CC[C@H]2[C@@H]3CCC4=Cc5oncc5C[C@]4(C)[C@H]3CC[C@@]21C [Danazol, 17a-Pregna-2,4-dien-20-yno[2,3-d]-isoxazol-17-ol]

pKa [2]: 1.90
Structure (SMILES): O=S(=O)(O)NC1CCCCC1 [cyclamic acid]
